The text below walks through data of PMC9499525, “Tissue-restricted inhibition of mTOR using chemical genetics” (Proceedings of the National Academy of Sciences of the …, 2022).

Assay [1] has as its target T1, FKBP12 V55G-HA / GST-mTOR FRB domain ternary complex (Homo sapiens, UniProt P42345+P62942, V56G).
T1 construct: recombinant HA-tagged wild-type or V55G mutant FKBP12 with GST-tagged mTOR FRB domain; 8xHis (cleaved yes); made in house; host or cells: E. coli BL21 (DE3) for FKBP12
Briefly: TR-FRET ternary complex formation, FKBP12 V55G with mTOR FRB. Format: binding. The conditions noted are these: FKBP12 V55G + mTOR FRB, n = 3, read-out: EC50 of ternary complex induction, FKBP12 V55G. The method, then: (§1) TR-FRET assay was performed using recommended conditions from Cisbio with slight modifications. FKBP12-HA, FKBP12 V55G-HA, and GST-mTORFRB recombinant proteins were each diluted to 5 nM in assay buffer (20 mM HEPES pH 7.5, 150 mM NaCl, 0.05% Tween-20, 0.1% bovine serum albumin [BSA], 0.5 mM dithiothreitol [DTT]). Anti-GST-Tb (Cisbio) and Anti-HA-XL665 (Cisbio) were diluted to 0.625 µg/mL and 5 µg/mL, respectively, in assay buffer. Rapa* compounds and FK506 were diluted to 50 µM and rapamycin to 5 µM in assay buffer containing 5% DMSO, and threefold serial dilution series were made from these solutions. We mixed 4 µL diluted FKBP12-HA protein, 4 µL diluted GST-mTORFRB, and 4 µL of compound or DMSO control in a well of a black low-volume 384-well plate (Corning 4514), and the mixture was incubated at room temperature for 1 h. We then added 4 µL of Anti-GST-Tb, and 4 µL Anti-HA-XL665, and the mixture was incubated at room temperature for an additional 1 h. Time-resolved fluorescence was read on a Tecan Spark 20M plate reader with the following parameters: Lag time: 60 µs; Integration time: 500 µs; Read A: Excitation filter 320 ([25]) nm, Emission filter 610 ([25]) nm, Gain 130; Read B: Excitation filter 320 ([25]) nm, Emission filter 665 ([8]) nm, Gain 165. Three replicates were performed for each assay condition. […]
Human FKBP12 coding sequence was cloned a pET-47b bacterial expression vector using Gibson assembly and a C-terminal HA-tag was added by QuickChange PCR. FKBP12 proteins were expressed as 8xHis fusions in E. coli BL21 (DE3) cells. […] Samples were then purified by size exclusion chromatography, concentrated to 10-20 mg/mL, and snap frozen in liquid nitrogen. pGEX-2T FRB was a gift from Jie Chen (Addgene plasmid #26607). mTOR FRB was expressed as a GST-fusion and purified as previously described (1). […]
PAMPA was performed by Quintara Discovery as described previously (2). Compounds were analyzed at 100 µM in PBS and measured using liquid chromatography-mass spectrometry (LC-MS) after 5 hours. […] Compounds were analyzed at 10 µM and measured by LC-MS after 1 hour.
In general terms: Time-resolved FRET reads energy transfer from a long-lived donor to a nearby acceptor.

Assay [2] has as its target T2, FKBP12-HA (wild-type) / GST-mTOR FRB domain ternary complex (Homo sapiens, UniProt P42345+P62942).
T2 construct: recombinant HA-tagged wild-type or V55G mutant FKBP12 with GST-tagged mTOR FRB domain; 8xHis (cleaved yes); made in house; host or cells: E. coli BL21 (DE3) for FKBP12
In words: TR-FRET ternary complex formation, wild-type FKBP12 with mTOR FRB. As to conditions: wild-type FKBP12 + mTOR FRB, n = 3, read-out: EC50 of ternary complex induction, wild-type FKBP12. Format: binding. The method, then: as §1, with “We mixed 4 µL diluted FKBP12-HA protein, 4 µL diluted GST-mTORFRB, and 4 µL of compound or DMSO control in a well of a black low-volume 384-well plate (Corning 4514), and the mixture was incubated at room temperature for 1 h. We then added 4 µL of Anti-GST-Tb, and 4 µL Anti-HA-XL665, and the mixture was incubated at room temperature for an additional 1 h.” left out, “165.” for “165. Three replicates were performed for each assay condition.”
Human FKBP12 coding sequence was cloned a pET-47b bacterial expression vector using Gibson assembly and a C-terminal HA-tag was added by QuickChange PCR. FKBP12 proteins were expressed as 8xHis fusions in E. coli BL21 (DE3) cells. […]
PAMPA was performed by Quintara Discovery as described previously (2). Compounds were analyzed at 100 µM in PBS and measured using liquid chromatography-mass spectrometry (LC-MS) after 5 hours. […]

pEC50: −log10 of the molar value.

T1 sequence (P62942 whole entry V56G, the tested form may be a part): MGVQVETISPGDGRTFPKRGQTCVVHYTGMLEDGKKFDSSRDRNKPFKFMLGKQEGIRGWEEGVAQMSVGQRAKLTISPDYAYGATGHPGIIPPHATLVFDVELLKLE
T1 sequence (P42345 2012-2144 limits assumed): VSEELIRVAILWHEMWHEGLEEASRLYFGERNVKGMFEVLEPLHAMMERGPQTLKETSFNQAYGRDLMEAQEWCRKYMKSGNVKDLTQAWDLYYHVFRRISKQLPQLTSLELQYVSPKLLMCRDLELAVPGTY
T2 sequence (P62942 whole entry, the tested form may be a part): as the sequence (P62942 whole entry V56G, the tested form may be a part) above, with G56V counted along it
T2 sequence (P42345 2012-2144 limits assumed): as the sequence (P42345 2012-2144 limits assumed) above

By pEC50 is commonly meant the EC50 on a negative log10 scale, so that one unit is a factor of ten. On to `CCO/N=C1/C[C@@H]([C@H](C)C[C@@H]2CC[C@@H](O)[C@H](OC)C2)OC(=O)[C@@H]2CCCCN2C(=O)C(=O)[C@]2(O)O[C@@H](CC[C@H]2C)C[C@H](OC)/C(C)=C/C=C/C=C/[C@@H](C)C[C@@H](C)C(=O)[C@H](OC)[C@H](O)/C(C)=C/[C@H]1C` [Rapa*-3Z], for which the negative logarithm of the EC50 (pEC50) was 7.93 in assay [1] and 6.19 in assay [2].
